Laboratory results reported in publication PMC11228755 (RSC Advances, 2024).
Values joined by “and” are separate entries in the source; they are usually repeats but may differ in a detail not shown here. Identical values can stand only once. Marks after values point to notes of the source that are not given here.

Key:
[1] = test system: Salmonella typhimurium TA100; experiment: Ames test; conditions: positive control, 1 μg per plate, −S9
[2] = test system: Salmonella typhimurium TA1535; experiment: Ames test; conditions: positive control, 1 μg per plate, −S9
[3] = test system: Salmonella typhimurium TA98; experiment: Ames test; conditions: positive control, 50 μg per plate, −S9
[4] = test system: Salmonella typhimurium TA97a; experiment: Ames test; conditions: positive control, 50 μg per plate, −S9
[5] = test system: Salmonella typhimurium TA102; conditions: positive control, 20 μg per plate, +S9

## [N-]=[N+]=[N-].[Na+] [Sodium azide, sodium azide]
[1]
  Number of revertants TA100: 1697 ± 54 ^c
[2]
  Number of revertants TA1535: 1190 ± 40 ^c and 1333 ± 53 ^c

## CN(C)c1ccc(N=NS(=O)(=O)[O-])cc1.[Na+] [Dioxone, dioxone]
[3]
  Number of revertants TA98: 1111 ± 117 ^a
[4]
  Number of revertants TA97a: 1872 ± 104 ^a

## Nc1ccc2cc3ccccc3cc2c1 [2-Aminoanthracene, 2-aminoanthracene]
[5]
  Number of revertants TA102: 2121 ± 21 ^e
